Source: publication PMC12156033, “N-Alkylamino Stilbene Compounds as Amyloid β Inhibitors for Alzheimer’s Disease Research” (Molecules, 2025)
Entries after “also recorded” stand apart in the source; their conditions may differ.

Key:
[1] = Fluorescence spectra of the compounds alone in PBS; format: physicochemical; settings: excitation 380 nm; compound 5.0 µM in PBS
Method: (§1) All fluorescence measurements were performed using a SpectraMax M2e plate reader (Molecular Devices, San Jose, CA, USA). The fluorescence spectra of the compounds’ solution (100 μL PBS, 5.0 µM) were recorded with excitation at 380 nm and an emission wavelength from 400 to 680 nm. To PBS solutions (100 μL) of the compounds (5.0 µM), various Aβ42 species were added, with final concentrations of 5.0 µM and 25.0 µM, and their fluorescence spectra (λmax of emission) were determined as described above.

[2] = target: T1, soluble Aβ42 aggregates (sAβ) (Homo sapiens, UniProt P05067); assay: Fluorescence spectra of compounds with soluble Aβ42 aggregates; format: binding; settings: excitation 380 nm; compound 5.0 µM in PBS with soluble Aβ aggregates
T1 construct: commercial Aβ42 peptide (AnaSpec or GL Biochem); purchased AnaSpec or GL Biochem
Method: as §1
(§2) Aβ42 powder was prepared by dissolving commercial Aβ42 peptide (AnaSpec or GL Biochem) in ammonium hydroxide solution (1%, v/v). The solution was then aliquoted out and lyophilized overnight. The resulting aliquoted powder was stored at −80 °C. Aβ42 monomers were generated by dissolving Aβ42 powder in 1,1,1,3,3,3-hexafluoro-2-propanol (HFIP, 1 mM) and incubating for 1 h at room temperature. The solution was then evaporated overnight and dried by vacuum centrifuge to result in monomeric films. Aβ42 fibrils were generated by dissolving the monomeric Aβ42 films in DMSO, diluting into the appropriate buffer, and incubating for 24 h at 37 °C with continuous agitation (final DMSO concentration was <2%). For the preparation of Aβ42 oligomers, the peptides were suspended in PBS buffer and incubated overnight at 4 °C.

[3] = Log D measurement octanol/PBS; format: physicochemical; settings: octanol / PBS pH 7.4, 10 μM, triplicate, ± SD
Method: The determination of log D values for N-alkylamino multifunctional compounds was performed using a slightly modified reported procedure. The compounds (final concentration 10 μM) were added to the premix suspension containing 0.5 mL octanol and 0.5 mL octanol-saturated PBS buffer (pH = 7.4). The resulting mixture was stirred vigorously for 5 min and centrifuged at 2000 rpm for 5 min. The octanol layer was separated from the PBS layer, and the fluorescence spectrum was recorded. The remaining 0.5 mL PBS layer was partitioned with 0.5 mL PBS-saturated octanol, and the octanol layer was separated after 5 min of vigorous shaking and centrifuging. The fluorescence spectrum of the octanol layer was recorded. The log D value was calculated based on the fluorescence intensity ratio for the two octanol layers. Each experiment was completed in triplicate, and the error represents the standard deviation for the average log D values.

[4] = target: T2, amyloid plaques in 5xFAD mice brain sections (Homo sapiens, UniProt P05067); assay: Histological staining of 5xFAD mice brain sections, colocalization with HJ3.4 antibody; format: binding, mouse; settings: 11-month-old 5xFAD mice brain sections, compound 25 μM, HJ3.4 1 μg/mL
T2 construct: the amyloid beta (Aβ) peptide that makes up amyloid plaques; tissue Jackson Laboratories; host or cells: brain sections from 11-month-old 5xFAD transgenic mice (Tg6799 line)
Source text: To further investigate the affinity of the developed compounds toward various Aβ aggregates in situ, the intrinsic fluorescence properties of the compounds were employed for their ability to stain insoluble amyloid plaques. For these studies, brain sections from 11-month-old 5xFAD transgenic mice, which rapidly develop severe amyloid pathology, were co-stained with stilbenes and HJ3.4 antibody. HJ3.4 is an anti-amyloid antibody that binds to the N-terminal region of the Aβ peptide, thereby targeting both soluble and insoluble amyloid species. To evaluate the Aβ binding specificity of the compounds in vitro, brain sections from 11-month-old 5xFAD mice were washed with PBS (3 × 5 min) and blocked with bovine serum albumin (2% w/v BSA in PBS, pH 7.4, 10 min). Then, the sections were incubated with 25 μM of multifunctional compounds and sequentially stained with HJ3.4 antibody (Professor David Holtzman, 1 μg/mL) for 30 min. The brain sections were treated with 2% w/v BSA-PBS again for 4 min to remove any compounds or antibodies that were non-specifically binding to the tissue. Finally, the sections were washed with PBS (3 × 2 min) and DI water (2 min) and mounted with non-fluorescent mounting media (Vectashield). Colocalization analysis and determination of Pearson’s correlation coefficient were performed with the imaging software Fiji (ImageJ 1.52p). Mouse brains were harvested in compliance with the Institutional Animal Care and Use Committee of the University of Illinois at Urbana-Champaign (IACUC protocol #22094).

[5] = Alamar blue cytotoxicity assay; format: cell-based, mouse; settings: mouse, Neuro2A (N2A) neuroblastoma cells, highest tested concentration (20 μM), 40 h, normalized to DMSO-only control, read-out: cell viability
Method: (§3) Mouse neuroblastoma Neuro2A (N2A) cell lines were purchased from the American Type Culture Collection (ATCC), Manassas, VA, USA. Cells were grown in DMEM/10% FBS, which is the regular growth media for N2A cells, in a humidified atmosphere with 5% CO2 at 37 °C. N2A cells were seeded in a clear 96-well plate (2.5 × 10^4/well) with DMEM/10% FBS. The media was changed to DMEM/N-2 media 24 h later. After 1 h, the treatment reagents were added. Owing to the poor solubility of compounds in the media, the final amount of DMSO used was 1% (v/v). After an additional incubation of 40 h, Alamar Blue solution was added to each well, and the cells were incubated for 90 min at 37 °C. Fluorescence intensity was measured at 590 nm (excitation wavelength = 560 nm).
(§4) The Alamar Blue assay was carried out as described, with the following treatment reagents: 20 μM compounds, 10 μM compounds, 5 μM compounds, and 2 μM compounds.

[6] = target: T3, Aβ42 fibrils (Homo sapiens, UniProt P05067); assay: Fluorescence spectra of compounds with Aβ42 fibrils; format: binding; settings: excitation 380 nm; compound 5.0 µM in PBS with Aβ fibrils
T3 construct: commercial Aβ42 peptide (AnaSpec or GL Biochem); purchased AnaSpec or GL Biochem
Method: as §1, §2

[7] = target: T4, Aβ aggregates (sAβ and Aβ fibrils) (Homo sapiens, UniProt P05067); assay: Fluorescence turn-on assay with Aβ aggregates; format: binding; settings: compound 5 μM in PBS pH 7.4
T4 construct: commercial Aβ42 peptide (AnaSpec or GL Biochem); purchased AnaSpec or GL Biochem
Method: A fluorescence turn-on assay was performed to interrogate the effect of structural differences on the fluorescence enhancement with Aβ aggregates. […] Increases in fluorescence intensity with different aggregates would be ideal for tools used in amyloid-based assays. […] Without the ortho-methoxy group on the EAG, there is greater fluorescence enhancement for Aβ fibrils over sAβ for L3 and L4. […] The larger fluorescence enhancement observed for L6 than L5 indicates the dimethylamine EDG/methoxy EAG pair has a greater TICT. The piperidine-EDG-containing L7 has only slightly higher turn-on with sAβ, which may be attributed to the ortho-methoxy group on the EAG. […] In this case, it appears that the methoxy on the EAG diminishes the overall fluorescence of the compound since L8 has greater baseline fluorescence and turn-on than L7. This is also the case for the morpholine-EDG-containing L9 and L10. The lack of a methoxy group on the L10 EAG, in conjunction with the oxygen heteroatom from the morpholine EDG, electronically favors turn-on with Aβ fibrils to a slight extent. […] Changing the EDG to a methyl piperazine, L11, increases baseline fluorescence and turn-on compared to L9. […] L11 and L12, both containing an N-methyl piperazine EDG, show similar turn-on with sAβ and fibrils, and the o-methoxy EAG of L11 increases overall baseline fluorescence compared to L12. […] The spectra for the remaining compounds can be found in the Supplementary Information (Figure S1). None of the three compounds with the highest fluorescence contained an o-methoxy group on the EAG.
as §1, with “above. […]” for “above.”

[8] = tested on: Cu-Aβ42 cytotoxicity on N2a cells; assay: N2a cell rescue from Cu-induced Aβ42 cytotoxicity (Alamar blue); format: cell-based, mouse; settings: [Aβ42] = [CuCl2] = 20 μM, compound 5 μM
Method: as §3
The Alamar Blue assay was carried out as described, with the following treatment reagents: 20 μM Aβ42 species, 5 μM compounds, and 20 μM CuCl2.

[9] = target: T5, Aβ40 peptide (Homo sapiens, UniProt P05067); assay: Aβ40 aggregation inhibition assay monitored by ThT fluorescence; format: biochemical; settings: 25 μM Aβ40, 5 μM ThT, 5 μM compound, 37 °C, 48 h
T5 construct: a peptide solution of 25 μM Aβ40 monomers (AnaSpec, Fremont, CA, USA) was prepared; purchased AnaSpec
Method: To investigate the effect of these compounds on amyloid aggregation, inhibition of aggregation assays were performed using the Aβ40 peptide. Aβ40 has been implicated in inducing oxidative stress and is physiologically the most common isoform of the amyloid peptide and is therefore a widely used isoform in amyloid assays. Aβ40 is also known to have slower aggregation kinetics than Aβ42, which is helpful for studying the inhibition of the early aggregation pathway. […] Thus, a lower RFU can be interpreted as inhibiting the fibrillization of amyloids. The rest of the compounds show appreciable inhibition of Aβ aggregation as found in the Supplementary Materials (Figure S2), except for L9, which contains the morpholine EDG and a methoxy group on the EAG (Figure 3). The addition of the more polar oxygen heteroatom may instead favor hydrogen bonding interactions within the aqueous media, thereby solvating the compound and reducing early interactions with soluble aggregates. Lastly, although L2 and L3 show similar amyloid inhibition, the L3 compound lacking the o-methoxy group begins inhibition at an earlier time. […] This procedure was established in a previous publication.

[10] = tested on: N2a cells; assay: Alamar blue cytotoxicity assay; format: cell-based, mouse; settings: among the cyclic amine EDG derivatives
Method: as §3, §4

[11] = target: soluble Aβ42 (Homo sapiens, UniProt P05067); assay: ThT control fluorescence turn-on assay with soluble Aβ42; format: binding; settings: [Aβ42] = 5 μM, em 485 nm, ex 435 nm
Method: Aβ42 and Aβ42 fibrils was used to control for soluble vs. insoluble amyloid.
text to prepare soluble and fibrillar Aβ42, the UV-vis absorbance was measured for the soluble
Aβ42 used in the control. In a cuvette, 100 μL o f [ A β42] = 20 μM. […]

T3 sequence (P05067 672-713 limits assumed): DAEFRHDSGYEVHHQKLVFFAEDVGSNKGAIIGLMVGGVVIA
T1 sequence (P05067 672-713 limits assumed): as above
T2 sequence (P05067 672-713 limits assumed): as above
T5 sequence (P05067 672-711 limits assumed): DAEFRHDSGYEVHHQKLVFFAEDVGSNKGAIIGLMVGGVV
T4 sequence (P05067 672-713 limits assumed): as the sequence (P05067 672-713 limits assumed) above
soluble Aβ42, sequence (P05067 672-713 limits assumed): as above

Structure (SMILES) | Compound λem (λmax of emission) [1] | Compound+sAβ λem (λmax of emission) [2] | logD [3] | Pearson's coefficient (R) of colocalization with AF594-HJ3.4 [4] | Compound+Fibrils λem (λmax of emission) [6] | inhibition of Aβ40 aggregation (ThT RFU) [9] | fluorescence turn-on [11] | viability at 40 h, 20 µM [5] | fluorescence enhancement / turn-on with Aβ aggregates [7] | effect on Cu-stabilized Aβ42 / Aβ42-induced toxicity [8] | cell viability (ranking in words) [10]
CNc1ccc(/C=C/c2cc(CN3CCN(C)CCN(C)CC3)c(O)c(OC)c2)cc1 [Compound L2, (E)-2-((4,7-dimethyl-1,4,7-triazonan-1-yl)methyl)-6-methoxy-4-(4-(methylamino)styryl)phenol] | 460 nm | 440 nm | 1.48 ± 0.02 | 0.54 | 440 nm |  |  | 88% |  |  | 
CN1CCN(C)CCN(Cc2cc(/C=C/c3ccc(N4CCN(C)CC4)cc3)ccc2O)CC1 [Compound L12, (E)-2-((4,7-dimethyl-1,4,7-triazonan-1-yl)methyl)-4-(4-(4-methylpiperazin-1-yl)styryl)phenol] | 450 nm | 430 nm | 0.81 ± 0.01 | 0.65 | 435 nm |  |  |  |  | rescue cells from Cu-Aβ42 cytotoxicity | best cell viability
Cc1ccc2c(c1)sc(-c1ccc(N(C)C)cc1)[n+]2C [ThT, Thioflavin T] |  |  |  |  |  |  | negligible turn-on |  |  |  | 

Now from value to compound, other results behind:

Compound λem (λmax of emission) [1] | Compound+sAβ λem (λmax of emission) [2] | logD [3] | Pearson's coefficient (R) of colocalization with AF594-HJ3.4 [4] | Compound+Fibrils λem (λmax of emission) [6] | inhibition of Aβ40 aggregation (ThT RFU) [9] | fluorescence turn-on [11] | Structure (SMILES) | viability at 40 h, 20 µM [5] | fluorescence enhancement / turn-on with Aβ aggregates [7] | effect on Cu-stabilized Aβ42 / Aβ42-induced toxicity [8] | cell viability (ranking in words) [10]
460 nm | 430 nm | 1.29 ± 0.01 | 0.68 | 430 nm | best inhibition |  | CN1CCN(C)CCN(Cc2cc(/C=C/c3ccc(N4CCCCC4)cc3)ccc2O)CC1 [Compound L8, (E)-2-((4,7-dimethyl-1,4,7-triazonan-1-yl)methyl)-4-(4-(piperidin-1-yl)styryl)phenol] |  | highest fluorescence turn-on; also recorded: greatest overall fluorescence enhancements | toxicity was exacerbated | 
455 nm | 455 nm | 0.93 ± 0.02 | 0.71 | 450 nm | least inhibition |  | COc1cc(/C=C/c2ccc(N3CCOCC3)cc2)cc(CN2CCN(C)CCN(C)CC2)c1O [Compound L9, (E)-2-((4,7-dimethyl-1,4,7-triazonan-1-yl)methyl)-6-methoxy-4-(4-morpholinostyryl)phenol] |  |  | inhibit both Cu-stabilized Aβ42- and Aβ42-induced toxicity; also recorded: rescue cells from Cu-Aβ42 cytotoxicity | best cell viability
